Patent US20260234107A1, “TRYPTAMINES AND METHODS OF TREATING MOOD DISORDERS” (priority 2022, published 2026)
Like-named read-outs stand apart in the source and are kept apart here.

Tests used:
[1] = system: monoamine oxidase A and B (MAO-A and MAO-B); test: Stability in the presence of monoamine oxidases (human liver mitochondria preparation); set-up: half-life / microsomal CLint: dose or concentration left out as unconfirmed; settings: for Remaining (t = 60 min) / half-life / microsomal CLint: human liver mitochondria; for half-life / microsomal CLint: human, pH 7.4; for stability in the presence of MAO (in words): human liver mitochondria preparation; for CLint(MAO) / t1/2: human liver mitochondria 0.30 mg protein/mL, 37° C.
Experimental: Liver Mitochondria Incubations. Human liver mitochondria (Xenotech H0610.M) were used.

[2] = Stability in mouse brain homogenate; format: in vitro ADME, male CD-1 mice; settings: mouse brain homogenate, 1 μM, 37° C.; for half-life at 1 µM: male, CD-1
[3] = Stability in rat brain homogenate; format: in vitro ADME, male Sprague Dawley rats; settings: rat brain homogenate, 1 μM, 37° C.; for half-life at 1 µM: male, Sprague Dawley
rat synaptosomes = test: Serotonin (5-HT) release from rat synaptosomes; format: biochemical, Male Sprague-Dawley rats; settings: for EC50: rat synaptosomes preloaded with [3H]5-HT; for % Release @ Max Dose (10 μM): rat synaptosomes
Experimental: Disclosed compounds were assessed for their ability to release serotonin (5-HT) from […] (Table 9). Potency and efficacy for 5-HT release varied substantially depending on the specific compound. […] However, there was also substantial variability among 4-hydroxy compounds.
Synaptosome 5-HT Release Assay. Synaptosome release assays were conducted according to modifications of previously described procedures (Partilla et al. (2016). Interrogating the Activity of Ligands at Monoamine Transporters in Rat Brain Synaptosomes. In Neurotransmitter Transporters (pp. 41-52). Springer.). Briefly, synaptosomes were prepared from rat brains. Male Sprague-Dawley rats were rendered unconscious with CO2 and their brains were immediately removed. The cerebella were discarded and the whole brains (minus striatum) were placed in ice-cold 0.32 M sucrose (10 mL per brain) and gently homogenized by hand. The homogenate of each brain was centrifuged at 1,000×g at 4° C. for 10 mins and the resulting supernatant was diluted with ice-cold 0.32 M sucrose to a total volume of 10 mL to provide the synaptosome solution. Synaptosomes were then preloaded with 5 nM [^3H]5-HT in the presence of selective uptake inhibitors of DAT (50 nM GBR12935), NET (100 nM nomifensine), and VMAT2 (1 μM reserpine) in Krebs phosphate buffer (KPB). The incubations were allowed to reach equilibrium for 2 h at 25° C. For the release reactions, 425 μL of preloaded synaptosomes were added to test tubes containing 75 μL of test drugs diluted in KPB containing 1 mg/mL BSA. After 10 mins, the release reaction was stopped using a cell harvester by rapid vacuum filtration over GF/B filter paper presoaked in wash buffer (10 mM Tris-HCl, pH 7.4, 150 mM NaCl) and the filters were washed with additional wash buffer. Filters were dried for 1 h at 60° C. and retained radioactivity was quantified using a MicroBeta 2 liquid scintillation counter. The amount of retained radioactivity was inversely proportional to the extent of release.

[4] = Metabolic stability in human liver microsomes (HLM); set-up: microsomal CLint / half-life: dose or concentration left out as unconfirmed; settings: for half-life / microsomal CLint: both, human, pooled human liver microsomes, pH 7.4
[5] = Plasma pharmacokinetics in rats after intravenous administration; settings: for AUC(0-t) / C0 / half-life: male, Sprague Dawley, rat, plasma, iv, 1 mg/kg; for plasma half-life (in words): rats, IV 1 mg/kg
5-HT1A = target: T1, 5-HT1A (Homo sapiens, UniProt P08908); test: FLIPR Ca2+ flux agonist assay at 5-HT1A; format: cell-based
T1 construct: host or cells: CHO cells
T1 sequence (P08908 1-422): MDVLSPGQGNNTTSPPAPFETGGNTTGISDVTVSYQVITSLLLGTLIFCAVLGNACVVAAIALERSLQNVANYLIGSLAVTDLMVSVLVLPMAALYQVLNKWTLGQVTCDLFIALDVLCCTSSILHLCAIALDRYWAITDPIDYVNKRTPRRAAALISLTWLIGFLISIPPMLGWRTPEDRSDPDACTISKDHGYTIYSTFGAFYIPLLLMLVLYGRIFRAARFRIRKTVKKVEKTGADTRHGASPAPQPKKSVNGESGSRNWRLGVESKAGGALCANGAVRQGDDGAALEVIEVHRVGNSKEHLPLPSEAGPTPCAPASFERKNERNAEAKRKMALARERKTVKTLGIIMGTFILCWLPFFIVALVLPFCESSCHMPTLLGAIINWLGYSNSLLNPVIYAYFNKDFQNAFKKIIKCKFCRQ

5-HT2A [6] = target: T2, 5-HT2A (Homo sapiens, UniProt P28223); test: 5-HT2A receptor radioligand binding ([3H]ketanserin)
Experimental: The binding affinities of disclosed compounds at the ketanserin binding site of the 5-HT2A receptor were determined in radioligand binding experiments.
Method. Affinity of the test compounds for the 5-HT2A receptor was determined in radioligand binding experiments with [^3H]ketanserin by WuXi AppTec (Hong Kong) Limited, using methods adapted from the literature and under conditions described in Table 4.

5-HT2B = target: T3, 5-HT2B (Homo sapiens, UniProt P41595); test: FLIPR Ca2+ flux agonist assay at 5-HT2B; format: cell-based; settings: Ca2+ flux; for 5-HT2B % Act @ Max Dose: HEK293, max dose
T3 construct: host or cells: HEK293

5-HT2C receptor = target: T4, 5-HT2C receptor (Homo sapiens, UniProt P28335); test: cell-based; format: cell-based; settings: Ca2+ flux
T4 sequence (P28335 33-458): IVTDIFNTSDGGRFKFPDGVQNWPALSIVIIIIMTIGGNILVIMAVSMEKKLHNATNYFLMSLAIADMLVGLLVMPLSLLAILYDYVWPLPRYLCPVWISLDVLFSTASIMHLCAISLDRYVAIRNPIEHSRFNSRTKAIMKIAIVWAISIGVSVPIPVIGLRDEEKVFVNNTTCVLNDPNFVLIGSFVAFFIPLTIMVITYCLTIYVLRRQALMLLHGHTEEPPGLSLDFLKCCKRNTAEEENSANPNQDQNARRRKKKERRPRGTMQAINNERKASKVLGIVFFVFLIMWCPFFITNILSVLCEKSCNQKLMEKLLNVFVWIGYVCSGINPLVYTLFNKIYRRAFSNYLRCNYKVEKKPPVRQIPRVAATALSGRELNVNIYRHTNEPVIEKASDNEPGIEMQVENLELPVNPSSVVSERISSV

5-HT2A [7] = target: T2, 5-HT2A; test: FLIPR Ca2+ flux agonist assay at 5-HT2A; format: cell-based; set-up: host or cells: HEK293; settings: Ca2+ flux, HEK293; read-out: 5-HT2A EC50
[8] = Plasma pharmacokinetics in mice after subcutaneous administration; format: in vivo, male C57BL/6 mice; settings: plasma, male C57BL/6 mice, SC 10 mg/kg
Source text: Animals. […] Four mice were housed in each cage. […] All animals were provided laboratory rodent diet. […] Animals were randomly assigned to treatment groups.

[9] = HLM 0.50 mg protein/mL, NADPH, 37° C., 60 minutes

T2 sequence (P28223 whole entry): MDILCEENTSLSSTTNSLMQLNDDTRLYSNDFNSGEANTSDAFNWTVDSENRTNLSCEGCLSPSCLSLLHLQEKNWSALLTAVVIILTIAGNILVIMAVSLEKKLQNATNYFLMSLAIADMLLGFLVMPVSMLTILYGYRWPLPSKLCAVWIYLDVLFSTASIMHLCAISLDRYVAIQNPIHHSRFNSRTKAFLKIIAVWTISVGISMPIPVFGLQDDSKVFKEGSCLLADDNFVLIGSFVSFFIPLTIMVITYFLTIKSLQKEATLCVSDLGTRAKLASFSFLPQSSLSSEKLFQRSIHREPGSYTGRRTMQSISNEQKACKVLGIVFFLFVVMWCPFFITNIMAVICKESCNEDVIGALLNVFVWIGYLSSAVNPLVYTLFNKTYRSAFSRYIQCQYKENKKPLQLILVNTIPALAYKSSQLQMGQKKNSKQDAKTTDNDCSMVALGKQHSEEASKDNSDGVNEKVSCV
T3 sequence (P41595 whole entry, species assumed): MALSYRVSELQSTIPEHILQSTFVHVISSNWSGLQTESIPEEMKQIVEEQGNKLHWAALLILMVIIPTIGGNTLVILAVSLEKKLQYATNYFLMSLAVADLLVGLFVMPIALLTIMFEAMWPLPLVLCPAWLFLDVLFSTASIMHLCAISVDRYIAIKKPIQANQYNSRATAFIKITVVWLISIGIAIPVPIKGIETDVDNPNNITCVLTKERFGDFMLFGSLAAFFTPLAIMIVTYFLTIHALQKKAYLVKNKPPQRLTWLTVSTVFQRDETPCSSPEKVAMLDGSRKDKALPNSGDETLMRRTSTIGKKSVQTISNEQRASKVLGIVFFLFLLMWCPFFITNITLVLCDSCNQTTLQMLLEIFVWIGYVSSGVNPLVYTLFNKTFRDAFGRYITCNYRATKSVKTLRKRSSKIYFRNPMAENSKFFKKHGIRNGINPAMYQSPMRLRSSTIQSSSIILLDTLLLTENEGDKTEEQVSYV

| Compound | Remaining (t = 60 min) [1] [%] | half-life [1] [h] | microsomal CLint [1] [µL/min/mg] | half-life at 1 µM [2] [h] | % Compound Remaining (after 120 min) [2] [%] | half-life at 1 µM [3] [h] | % Compound Remaining (after 120 min) [3] [%] | EC50 (rat synaptosomes) [nM] | % Release @ Max Dose (10 μM) (rat synaptosomes) [%] | half-life [4] [h] | microsomal CLint [4] [µL/min/mg] | AUC(0-t) [5] [ng·h/mL] | C0 [5] [ng/mL] | half-life [5] [h] | stability in the presence of MAO (in words) [1] | CLint(MAO) [1] [µL/min/mg] | t1/2 [1] [h] | 5-HT1A % Act @ Max Dose (5-HT1A; Ca2+ flux, CHO cells) [%] | 5-HT2B % Act @ Max Dose (5-HT2B) [%] | EC50 (5-HT2C receptor) [nM] | other results |
| --- | --- | --- | --- | --- | --- | --- | --- | --- | --- | --- | --- | --- | --- | --- | --- | --- | --- | --- | --- | --- | --- |
| CCNCCc1c[nH]c2cccc(O)c12 [Compound 5, 3-(2-(ethylamino)ethyl)-1H-indol-4-ol] | 76.2 | > 2.42 | < 15.9 | 3.06 | 67.2 | 2.63 | 61.5 | 4060 | 53.8 | > 2.42 | < 9.6 | 161 | 350 | 0.65 | – | – | – | – | – | – | – |
| CNCCc1c[nH]c2cccc(O)c12 [Compound 2, 3-(2-(methylamino)ethyl)-1H-indol-4-ol] | 12.8 | 0.312 | 124 | 0.233 | 0.2 | 0.105 | 0.2 | – | – | 0.22 | 105 | 21 | 185 | 0.18 | highly unstable | – | – | – | – | – | plasma half-life (in words) [5]: very short half-lives |
| CN(C)CCc1c[nH]c2cccc(O)c12 [Psilocin, psilocin, reference compound] | 112.1 | – | – | – | 97.6 | – | 46.1 | – | – | – | – | 146 | 179 | 1.56 | stable | <15.9 | >2.42 | 0.720 | – | – | t1/2 [2]: >4.818 h; t1/2 [3]: 1.913 h; plasma half-life (in words) [5]: much longer half-lives |
| CCN(C)CCc1c[nH]c2ccccc12 [MET, N-methyl-N-ethyltryptamine, reference compound] | 84.5 | – | – | – | – | – | – | 183 | 71.00 | – | – | – | – | – | more stable | <15.9 | >2.42 | 71.4 | 11.9 | 28.3 | Ki (5-HT2A [6]): 128 nM; EC50 (5-HT1A): 57900 nM; EC50 (5-HT2A [7]): 17.1 nM |
| CCCN(CC)CCc1c[nH]c2ccccc12 [EPT, N-ethyl-N-propyltryptamine, reference compound] | 95.1 | – | – | – | – | – | – | 264 | 45.02 | – | – | – | – | – | more stable | <15.9 | >2.42 | 75.5 | 80.4 | 33.4 | EC50 (5-HT2B; HEK293, ND = not determined due to lack of measurable agonism, read-out: 5-HT2B EC50): 40.3 nM; 5-HT2C % Act @ Max Dose (5-HT2C receptor): 90.8%; EC50 (5-HT1A; Ca2+ flux, CHO cells, ND = not determined due to lack of measurable agonism, read-out: 5-HT1A EC50): 88700 nM; EC50 (5-HT2A [7]): 30.5 nM |
| CCN(C)CCc1c[nH]c2cccc(O)c12 [Compound 4-HO-MET, reference compound] | 112.3 | – | – | – | 16.7 | – | 20.9 | 496 | 56.9 | – | – | – | – | – | stable | <15.9 | >2.42 | – | 1.1 | 37.8 | AUC(0-t) ([8]; mouse): 1410 ng·h/mL; Cmax ([8]; mouse): 1160 ng/mL; Tmax [8]: 4.8 min; t1/2 [8]: 1.1 h; 5-HT2C % Act @ Max Dose (5-HT2C receptor): 95.0%; t1/2 [2]: 0.763 h; t1/2 [3]: 0.883 h; Clint [4, 9]: <9.6 µL/min/mg; t1/2 [4, 9]: >2.42 h |
